In patent US6410541B2, “Compounds useful for inhibition of farnesyl protein transferase” (Schering Corporation, priority 1997, dated 2002):

biological target: farnesyl protein transferase (UniProt Q02293+Q04631); assay: FPT IC50 (inhibition of farnesyl protein transferase, in vitro enzyme assay); assay type: biochemical; settings: at 140 nM
Procedure: (§1) FPT IC50 (inhibition of farnesyl protein transferase, in vitro enzyme assay) and COS Cell IC50 (Cell-Based Assay) were determined following the assay procedures described in WO 95/10516, published Apr. 20. 1995. GGFT IC50 (inhibition of geranylgeranyl protein transferase, in vitro enzyme assay), Cell Mat Assay, and anti-tumor activity (in vivo anti-tumor studies) could be determined by the assay procedures described in WO 95/10516. The disclosure of WO 95/10516 is incorporated herein by reference thereto.
In Table 10, “nM” represents nanomolar.

SMILES | FPT inhibition at 140 nM (printed in FPT IC50 column)
COc1ccc2c(c1)CC(CC(=O)N1CCC([C@H]3c4ncc(Br)cc4CCc4cc(Cl)cc(Br)c43)CC1)C2=O (stereo partly shown) [Compound 17.0B] | 32% at 140

same assay, conditions: in vitro enzyme assay per WO 95/10516

SMILES | IC50
O=C(C=C1CCC2(CC1)OCCO2)N1CCC([C@H]2c3ncc(Br)cc3CCc3cc(Cl)cc(Br)c32)CC1 [Compound 21.0] | 10.7 nM
O=C(CC1CCC2(CC1)OCCO2)N1CCC([C@H]2c3ncc(Br)cc3CCc3cc(Cl)cc(Br)c32)CC1 [Compound 24.0] | 4.7 nM
CC(=O)NN=C1CCC(CC(=O)N2CCC([C@H]3c4ncc(Br)cc4CCc4cc(Cl)cc(Br)c43)CC2)CC1 (stereo partly shown) [Compound 30.0] | 4.3 nM
O=C(O)CON=C1CCC(CC(=O)N2CCC([C@H]3c4ncc(Br)cc4CCc4cc(Cl)cc(Br)c43)CC2)CC1 (stereo partly shown) [Compound 31.0] | 1.9 nM
CC(C)(C)[Si](C)(C)OCCON=C1CCC(CC(=O)N2CCC([C@H]3c4ncc(Br)cc4CCc4cc(Cl)cc(Br)c43)CC2)CC1 (stereo partly shown) [Compound 32.0] | 97 nM
O=C(C1CCC2(CC1)OCCO2)N1CCC([C@H]2c3ncc(Br)cc3CCc3cc(Cl)cc(Br)c32)CC1 [Compound 34.0] | 10.7 nM
CON=C1CCC(C(=O)N2CCC([C@H]3c4ncc(Br)cc4CCc4cc(Cl)cc(Br)c43)CC2)CC1 (stereo partly shown) [Compound 35.0] | 8.2 nM
CC(C)(C)OC(=O)NC1CCC(C(=O)N2CCC(C3c4ncc(Br)cc4CCc4cc(Cl)cc(Br)c43)CC2)CC1 (stereo not shown) [Compound 36.0] | 67 nM
N[C@H]1CC[C@@H](C(=O)N2CCC([C@H]3c4ncc(Br)cc4CCc4cc(Cl)cc(Br)c43)CC2)CC1 [Compound 37.0] | 14 nM
NC(=O)NC1CCC(C(=O)N2CCC(C3c4ncc(Br)cc4CCc4cc(Cl)cc(Br)c43)CC2)CC1 (stereo not shown) [Compound 38.0] | 6.2 nM
CCOC(=O)C(=O)NC1CCC(C(=O)N2CCC(C3c4ncc(Br)cc4CCc4cc(Cl)cc(Br)c43)CC2)CC1 (stereo not shown) [Compound 39.0] | 23 nM
CS(=O)(=O)NC1CCC(C(=O)N2CCC(C3c4ncc(Br)cc4CCc4cc(Cl)cc(Br)c43)CC2)CC1 (stereo not shown) [Compound 40.0] | 2.9 nM
CC(C)(C)OC(=O)NC1CCCC(C(=O)N2CCC(C3c4ncc(Br)cc4CCc4cc(Cl)cc(Br)c43)CC2)C1 (stereo not shown) [Compound 43.0] | 150 nM
NC1CCCC(C(=O)N2CCC(C3c4ncc(Br)cc4CCc4cc(Cl)cc(Br)c43)CC2)C1 (stereo not shown) [Compound 44.0] | 13.9 nM
NC(=O)NC1CCCC(C(=O)N2CCC(C3c4ncc(Br)cc4CCc4cc(Cl)cc(Br)c43)CC2)C1 (stereo not shown) [Compound 45.0] | 17.6 nM
CCOC(=O)C(=O)NC1CCCC(C(=O)N2CCC(C3c4ncc(Br)cc4CCc4cc(Cl)cc(Br)c43)CC2)C1 (stereo not shown) [Compound 46.0] | 34 nM
NC(=O)C(=O)NC1CCCC(C(=O)N2CCC(C3c4ncc(Br)cc4CCc4cc(Cl)cc(Br)c43)CC2)C1 (stereo not shown) [Compound 49.1] | 15.6 nM
O=C(C1CCC(O)CC1)N1CCC(C2c3ncc(Br)cc3CCc3cc(Cl)cc(Br)c32)CC1 (stereo not shown) [Compound 68.0] | > 160 nM
CC(=O)OC1CCC(C(=O)N2CCC(C3c4ncc(Br)cc4CCc4cc(Cl)cc(Br)c43)CC2)CC1 (stereo not shown) [Compound 69.0] | 7.8 nM
O=C(C1CCC(O)CC1)N1CCC(C2c3ncc(Br)cc3CCc3cc(Cl)cc(Br)c32)CC1 (stereo not shown) [Compound 70.0] | 11 nM

The next lines start with the values.

IC50 | SMILES
2.2 nM | O=C1CCC(CC(=O)N2CCC([C@H]3c4ncc(Br)cc4CCc4cc(Cl)cc(Br)c43)CC2)CC1 [Compound 13.0]
2.6 nM | O=C1CCN(CC(=O)N2CCC([C@H]3c4ncc(Br)cc4CCc4cc(Cl)cc(Br)c43)CC2)CC1 [Compound 14.0]
5 nM | O=C1CCCCC1CC(=O)N1CCC([C@H]2c3ncc(Br)cc3CCc3cc(Cl)cc(Br)c32)CC1 (stereo partly shown) [Compound 18.0]
10.7 nM | O=C1CCCCC1CCC(=O)N1CCC([C@H]2c3ncc(Br)cc3CCc3cc(Cl)cc(Br)c32)CC1 (stereo partly shown) [Compound 19.0]
7 nM | C[C@]1(CCC(=O)N2CCC([C@H]3c4ncc(Br)cc4CCc4cc(Cl)cc(Br)c43)CC2)CCCCC1=O [Compound 20.0]
2.7 nM | O=C(CC1CCC(=NO)CC1)N1CCC([C@H]2c3ncc(Br)cc3CCc3cc(Cl)cc(Br)c32)CC1 (stereo partly shown) [Compound 23.0]
4.4 nM | CON=C1CCC(CC(=O)N2CCC([C@H]3c4ncc(Br)cc4CCc4cc(Cl)cc(Br)c43)CC2)CC1 (stereo partly shown) [Compound 25.0]
6 nM | O=C(CN1CCC(=NO)CC1)N1CCC([C@H]2c3ncc(Br)cc3CCc3cc(Cl)cc(Br)c32)CC1 [Compound 26.0]
6.7 nM | CON=C1CCN(CC(=O)N2CCC([C@H]3c4ncc(Br)cc4CCc4cc(Cl)cc(Br)c43)CC2)CC1 [Compound 27.0]
35 nM | O=C(CN1CCC2(CC1)SCCS2)N1CCC([C@H]2c3ncc(Br)cc3CCc3cc(Cl)cc(Br)c32)CC1 [Compound 28.0]
3 nM | NC(=O)NN=C1CCC(CC(=O)N2CCC([C@H]3c4ncc(Br)cc4CCc4cc(Cl)cc(Br)c43)CC2)CC1 (stereo partly shown) [Compound 29.0]
5.1 nM | O=C1CCC(C(=O)N2CCC([C@H]3c4ncc(Br)cc4CCc4cc(Cl)cc(Br)c43)CC2)CC1 [Compound 33.0]

tested on: COS Cell; assay: COS Cell IC50 (Cell-Based Assay); settings: COS cells, cell-based assay per WO 95/10516
Procedure: as §1

SMILES | IC50
CC(=O)OC1CCC(C(=O)N2CCC(C3c4ncc(Br)cc4CCc4cc(Cl)cc(Br)c43)CC2)CC1 (stereo not shown) [Compound 69.0] | 30 nM
